According to the supplement of paper PMC5908809:

Columns and labels:
[1] = tested on: normal NK cells expanded with K562-aAPC; assay: percent inhibition of viability; higher = more inhibition; settings: 72 h, IL-2 2.5 ng/mL
Experimental: (§1)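 Drug sensitivity and resistance testing on K562-aAPC-expanded normal NK cells: 5 concentrations (10-fold steps over a 10,000-fold range), 72 h at 37 °C, viability by CellTiter-Glo normalised to DMSO and benzethonium chloride controls; DSS from the fitted curve.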

[2] = tested on: DERL-7 (IL-2 2.5 ng/mL); assay: as above; settings: 72 h
[3] = tested on: IMC-1 (IL-2 20 ng/mL); assay: as above; settings: 72 h
[4] = tested on: KAI3 (IL-2 2.5 ng/mL); assay: as above; settings: 72 h
[5] = tested on: KHYG-1 (IL-2 2.5 ng/mL); assay: as above; settings: 72 h
[6] = tested on: NK-92 (IL-2 2.5 ng/mL); assay: as above; settings: 72 h
[7] = tested on: NK-YS (IL-2 2.5 ng/mL); assay: as above; settings: 72 h
[8] = tested on: NKL (IL-2 2.5 ng/mL); assay: as above; settings: 72 h
[9] = tested on: SNK-6 (IL-2 2.5 ng/mL); assay: as above; settings: 72 h
[10] = tested on: YT (IL-2 2.5 ng/mL); assay: as above; settings: 72 h
[11] = tested on: normal primary NK cells, pool 1 (3 donors) (IL-2 2.5 ng/mL); assay: as above; settings: 72 h
[12] = tested on: normal primary NK cells, pool 1 (3 donors), resting (IL-2 0 ng/mL); assay: as above; settings: 72 h
[13] = tested on: normal primary NK cells, pool 2 (3 donors) (IL-2 2.5 ng/mL); assay: as above; settings: 72 h
[14] = tested on: normal primary NK cells, pool 3 (3 donors) (IL-2 2.5 ng/mL); assay: as above; settings: 72 h
[15] = tested on: normal NK cells expanded with K562-aAPC; assay: drug sensitivity score (DSS) (DSS units); higher = more sensitive; extreme values may be limits of the assay; settings: 72 h; IL-2 2.5 ng/mL
Experimental: as §1

[16] = tested on: DERL-7 (IL-2 2.5 ng/mL); assay: as above; settings: 72 h
[17] = tested on: IMC-1 (IL-2 20 ng/mL); assay: as above; settings: 72 h
[18] = tested on: KAI3 (IL-2 2.5 ng/mL); assay: as above; settings: 72 h
[19] = tested on: KHYG-1 (IL-2 2.5 ng/mL); assay: as above; settings: 72 h
[20] = tested on: NK-92 (IL-2 2.5 ng/mL); assay: as above; settings: 72 h
[21] = tested on: NK-YS (IL-2 2.5 ng/mL); assay: as above; settings: 72 h
[22] = tested on: NKL (IL-2 2.5 ng/mL); assay: as above; settings: 72 h
[23] = tested on: SNK-6 (IL-2 2.5 ng/mL); assay: as above; settings: 72 h
[24] = tested on: YT (IL-2 2.5 ng/mL); assay: as above; settings: 72 h
[25] = tested on: normal primary NK cells, pool 1 (3 donors) (IL-2 2.5 ng/mL); assay: as above; settings: 72 h
[26] = tested on: normal primary NK cells, pool 1 (3 donors), resting (IL-2 0 ng/mL); assay: as above; settings: 72 h
[27] = tested on: normal primary NK cells, pool 2 (3 donors) (IL-2 2.5 ng/mL); assay: as above; settings: 72 h
[28] = tested on: normal primary NK cells, pool 3 (3 donors) (IL-2 2.5 ng/mL); assay: as above; settings: 72 h

Cn1cc(C2=C(c3cn(C4CCN(Cc5ccccn5)CC4)c4ccccc34)C(=O)NC2=O)c2ccccc21 [Enzastaurin] (max concentration tested 10000 nM)
percent inhibition of viability [%]
Settings	1 nM	10 nM	100 nM	1000 nM	10000 nM
[1]	-2.11	0.83	0.77	6.44	4.35
[2]	1.51	-3.14	-1.37	-1.66	38.9
[3]	-6.89	3.57	0.18	12	33.1
[4]	-2.12	1.12	-3.1	-5.65	1.6
[5]	0.22	1.8	5.25	15.6	19
[6]	5.42	5.65	-7.08	-10.9	14.2
[7]	0.58	2.87	5.54	3.28	8.57
[8]	-10.8	-1.53	6.99	9.21	4.11
[9]	-2.07	-1.57	11	-2.69	14.5
[10]	0.21	3.25	5.09	4.05	16.4
[11]	2.52	-11.7	-6.73	-14.6	-7.58
[12]	3.14	-9.37	-6.91	-38.3	-57.7
[13]	-9.8	0.84	10.8	-7.31	23.3
[14]	-14.8	-5.85	0.91	-0.47	24.4

Settings	drug sensitivity score
[15]	0
[16]	1.77
[17]	3.17
[18]	0
[19]	2
[20]	0.06
[21]	0
[22]	0
[23]	0.12
[24]	0.24
[25]	0
[26]	0
[27]	0.55
[28]	0.87

Cc1ccc(C(=O)Nc2ccc(CN3CCN(C)CC3)c(C(F)(F)F)c2)cc1C#Cc1cnc2cccnn12 [Ponatinib] (max concentration tested 1000 nM)
percent inhibition of viability [%]
Settings	0.1 nM	1 nM	10 nM	100 nM	1000 nM
[1]	-4.16	-2.02	24.4	-11.2	70.4
[2]	6.88	2.27	-1.37	18.4	74.2
[3]	-6.8	-0.24	-8.73	-1.9	-20.2
[4]	-7.8	-3.54	0.07	10.6	83.4
[5]	-7.12	-3.44	-4.86	3.85	65.1
[6]	-13.8	-10.1	-23.1	-19.9	55
[7]	-8.44	-4.74	-4.88	8.88	33.5
[8]	-13.5	-11.6	1.83	36.3	70.1
[9]	11.2	4.03	-7.68	-18.6	-2.96
[10]	-6.26	-2.49	1.52	27	68.5
[11]	2.63	6.68	12.1	7.51	81.5
[12]	1.74	25.3	15.3	19.4	60
[13]	2.87	-1.56	1.5	-2.42	75
[14]	-2.51	2.42	9.55	-20	65

Settings	drug sensitivity score
[15]	3.2
[16]	6.96
[17]	0
[18]	6.4
[19]	4.12
[20]	2.11
[21]	2.89
[22]	8.25
[23]	0
[24]	7.33
[25]	5.73
[26]	8.02
[27]	3.94
[28]	2.66
